We go through two molecules from patent US9273318B2, “Induction of thyroid iodide-handling gene expression in human cancers” (THE JOHNS HOPKINS UNIVERSITY, priority 2008, dated 2016).

Assay [1] concerns KAT10 cells. The assay is described as follows: Radioactive iodide uptake assay, KAT10 cells. Type of assay: cell-based, human. As to conditions: KAT10 cells treated with inhibitors, 1 μCi Na125I, 1 h. As to the method:
(§1) FIG. 14A-14C. […] FIG. 14A) Flow cytometric measurement of NIS protein expression. […] NIS protein levels were measured by flow cytometry. The blue frames indicate the cells expressing NIS protein, including dead (right upper quadrant; positive for both 7-AAD and NIS) and living (right lower quadrant, positive only for NIS) cells. FIG. 14B) Immunofluorescent localization of NIS. After a 30-h combined treatment with both Akti IV and U0126 (as in FIG. 14A), cells were analyzed by immunofluorescent microscopy using anti-NIS and FITC-coupled secondary antibody and double immunofluorescence with the red color representing 7-AAD nuclear staining and the green color representing NIS expression and localization. […] FIG. 14C) In vitro radioiodide uptake. […] Cells were subsequently incubated with 1 μCi Na125I/0.5 ml/well on 12-well plates for 1 h. Cells were then washed and harvested for radioactivity measurement using a gamma-counter as described in the Experimental Procedures. Data are expressed as the mean±SD of values from three assays. **, P<0.01, compared with control or empty vector.
Thyroid cancer cells (1×10^6 cells/well) treated under the indicated conditions were seeded in 12-well plates. […] Cells were collected and radioactivity was counted by a gamma-counter.

The test system of assay [2] is NPA cells. Nature of the assay: Radioactive iodide uptake assay, NPA cells. The note with it: NPA cells treated with inhibitors, 1 μCi Na125I, 1 h. Type of assay: cell-based, human. The method, then: (§2) FIG. 6A-6D. […] After a serum starvation for 24 h, total RNA was isolated for expression analysis for the indicated thyroid iodide-metabolizing genes. RT-PCR analysis was performed for the expression of NIS in NPA cells. FIG. 6B) Flow cytometric measurement of NIS protein expression. NPA cells were treated with specific inhibitors (upper panel) as described in FIG. 1 or stably transfected with specific siRNAs to knock down BRAF and Akt-1/2, individually or in combination as described in FIG. 3 (lower panel). NIS protein levels were measured by flow cytometry. […] After a 30-h combined treatment with both U0126 and Akti IV (as in FIG. 6B), cells were analyzed by immunofluorescent microscopy using anti-NIS and FITC-coupled secondary antibody and double immunofluorescence with the red color representing 7-AAD nuclear staining and the green color representing NIS expression and localization. […] Cells were then washed and harvested for radioactivity measurement using a gamma-counter as described in the Materials and Methods. Data are expressed as the mean±SD of values from three assays. **, P<0.01, compared with control or empty vector.
(§3) FIG. 14A-14C. […] NIS protein levels were measured by flow cytometry. […] Cells were then washed and harvested for radioactivity measurement using a gamma-counter as described in the Experimental Procedures. […]

Assay [3] relates to phosphorylation of Akt (p-Akt). Nature of the assay: Western blotting of phosphorylated Akt in KAT10 cells. As to conditions: Akti IV 2 μM, 30 h. On the technique in general: Immunoblotting shows a protein as a band on a membrane.
Method: Effects of suppression of the PI3K/Akt and MAP kinase pathways by specific inhibitors on thyroid cancer cells. […] NPA and KAT10 cells were treated with Akti IV at 0.5 and 2 μM, respectively, or with U0126 at 10 μM for 30 h. Cells were lysed for Western blotting assay. The activities of PI3K/Akt and MAP kinase pathways were reflected by the level of phosphorylated Akt and ERK detected with specific anti-phosphorylated Akt (p-Akt) and anti-phosphorylated ERK (p-ERK) antibodies. Immunoblotting with antibody against β-actin was used for quality control.
Cells were lysed in RIPA buffer (Santa Cruz, Calif.). Cellular proteins were resolved by electrophoresis on a SDS-polyacrylamide (10%) gel (SDS-PAGE), transferred onto PVDF membranes (Amersham Pharmacia Biotech, Piscataway, N.J.), and immunoblotted with specific primary antibodies. Anti-BRAF (Sc-166), anti-phospho-Akt-1/2/3 (Sc-7985-R), anti-phospho-ERK (Sc-7383), and anti-Actin (Sc-1616-R) were purchased from Santa Cruz (Santa Cruz, Calif.). Anti-Akt-1 (#2967) and anti-Akt-2 (#2964) were purchased from Cell Signaling Technologies, Inc. (Beverly, Mass.). Antigen-antibody complexes were visualized using HRP-conjugated anti-mouse (Sc-2005, Santa Cruz, Calif.) or anti-rabbit (Sc-2004, Santa Cruz, Calif.) IgG antibodies and ECL Western Blotting Analysis System (Amersham Pharmacia).
The subject of assay [4] is NIS protein. The assay is described as follows: Flow cytometry and immunofluorescence of NIS protein expression, NPA cells. Type of assay: cell-based, human. As to conditions: U0126 10 μM, Akti IV 0.5 μM, 30 h, control 3.4%. As to the method: as §2, §3
For orientation: Flow cytometry measures light scatter and fluorescence of single cells or particles in a stream.

Assay [5] deals with thyroid iodide-handling genes (NIS, TSHR, Tg, TPO, FOXE1, TTF1). Nature of the assay: RT-PCR / quantitative RT-PCR of thyroid iodide-handling genes, NPA cells. Type of assay: cell-based, human. As to conditions: U0126 10 μM, Akti IV 0.5 μM, 30 h.
Assay [6] relates to thyroid genes (Tg, TSHR, NIS, TTF-1, TTF2). Nature of the assay: Quantitative real-time PCR of thyroid iodide-metabolizing genes, KAT10 cells. Type of assay: cell-based, human. The note with it: U0126 10 μM, Akti IV 2 μM, 30 h. In general terms: In qPCR the cycle at which signal appears reflects the starting amount.
The test system of assay [7] is NIS protein. The assay is described as follows: Flow cytometry and immunofluorescence of NIS protein expression, KAT10 cells. Type of assay: cell-based, human. The note with it: U0126 10 μM, Akti IV 2 μM, control 8.8%. As to the method: as §1, with “vector. […]” for “vector.”
For assay [8], the system named is KAT10 cells. Nature of the assay: MTT cell proliferation assay, KAT10 cells. As to conditions: 4 μM U0126, 1 μM Akti IV, 5-day course.
Method: (§5) FIG. 7B) Inhibition of thyroid cancer cell proliferation by suppression of PI3K/Akt and MAP kinase pathways achieved with Akti IV and U0126 individually or in combination (U+A) as indicated. MTT assay was performed to evaluate cell proliferation over a 5-day course of treatment with Akti IV and U0126.
In assay [9] the test system is phosphorylation of Akt (p-Akt). Nature of the assay: Western blotting of phosphorylated Akt in NPA cells. The note with it: Akti IV 0.5 μM, 30 h.
Method: FIGS. 1A-1C Effects of suppression of the MAPK and PI3K/Akt pathways by specific inhibitors on NPA cells. FIG. 1A) Inhibition of ERK and Akt phosphorylation by suppression of MAPK and PI3K/Akt pathways using the MEK-specific inhibitor U0126 and the Akt-specific inhibitor Akti IV, respectively. NPA cells were treated with U0126 at 10 μM, or with Akti IV at 0.5 μM for 30 h. Cells were lysed for Western blotting assay. The activities of MAPK and PI3K/Akt pathways were reflected by the level of phosphorylated ERK and Akt detected with specific anti-phosphorylated ERK (p-ERK) and anti-phosphorylated Akt (p-Akt) antibodies. Immunoblotting with antibody against β-actin was used for quality control.
Effects of suppression of the PI3K/Akt and MAP kinase pathways by specific inhibitors on thyroid cancer cells. FIG. 7 A) Inhibition of Akt and ERK phosphorylation by suppression of PI3K/Akt and MAP kinase pathways using the Akt-specific inhibitor Akti IV and the MEK-specific inhibitor U0126, respectively. NPA and KAT10 cells were treated with Akti IV at 0.5 and 2 μM, respectively, or with U0126 at 10 μM for 30 h. Cells were lysed for Western blotting assay. The activities of PI3K/Akt and MAP kinase pathways were reflected by the level of phosphorylated Akt and ERK detected with specific anti-phosphorylated Akt (p-Akt) and anti-phosphorylated ERK (p-ERK) antibodies. […]
Assay [10] relates to NPA cells. Nature of the assay: MTT cell proliferation assay, NPA cells. The note with it: 4 μM U0126, 0.2 μM Akti IV, 5-day course.
Method: FIG. 1B) Inhibition of cell proliferation by suppression of MAPK and PI3K/Akt pathways achieved with U0126 and Akti IV individually or in combination (U+A) as indicated. MTT assay was performed to evaluate cell proliferation over a 5-day course of treatment with U0126 and Akti IV.
as §5
Assay [11] relates to phosphorylation of ERK (p-ERK). The note with it: KAT10 cells, U0126 10 μM, 30 h. The text has this: (§4) FIG. 7A-7C. […] Cells were lysed for Western blotting assay.
In assay [12] the test system is phosphorylation of ERK (p-ERK). As to conditions: NPA cells, U0126 10 μM, 30 h.
Text: Cells were lysed for Western blotting assay.
as §4
Cells were lysed in RIPA buffer.

“Also recorded” adds a separate entry of the source. Where two headings read alike, the source gives them in different places.

As for `CC[n+]1c(/C=C/N(C)c2ccccc2)n(-c2ccccc2)c2ccc(-c3nc4ccccc4s3)cc21.[I-]` [Akti IV, Akt inhibitor IV], the Na125I uptake entry in [1] is given as “significantly increased”. Further, in [2], the radioiodide uptake entry is on record as “significantly increased”. Besides, the “inhibition of phosphorylation of Akt (p-Akt)” value in assay [3] and in assay [9] was “strongly inhibited” each time. Besides, the results for the “NIS expression (cells expressing NIS protein, flow cytometry)” value in assay [4] and in assay [7] were 13.7% and 29%, respectively. Further, in assay [5], the “expression of iodide-handling genes (NIS, TSHR, Tg, TTF1)” value is “restored; also recorded: induced or dramatically enhanced”. For the same molecule, the “expression of thyroid genes (Tg, TSHR, NIS, TTF1)” value in assay [6] is reported as “restored”. The “inhibition of cell proliferation (MTT)” value in [8] and in [10] was “partially” in each case.

For `N#CC(=C(/N)Sc1ccccc1N)/C(C#N)=C(\N)Sc1ccccc1N` [U0126], in assay [1], the Na125I uptake result was “significantly increased”. Further, the radioiodide uptake result in assay [2] is reported as “significantly increased”. Further, the “inhibition of phosphorylation of ERK (p-ERK)” value in [11] and in assay [12] was “strongly inhibited” throughout. The “NIS expression (cells expressing NIS protein, flow cytometry)” value in [4] is on record as 6%; in [7], 11.8%. Besides, the “expression of iodide-handling genes (NIS, TSHR, Tg, TTF1)” value in assay [5] is “restored; also recorded: induced or dramatically enhanced”. Besides, the “expression of thyroid genes (Tg, TSHR, NIS, TTF1)” value in assay [6] is given as “restored”. The “inhibition of cell proliferation (MTT)” value in assay [8] and in [10] was “partially” each time.
